# From ChEMBL document CHEMBL4308841, “Synthesis, in vitro antiproliferative activity, and kinase inhibitory effects of pyrazole-containing diarylureas and diarylamides” (Eur J Med Chem, 2018)
# Assays:
# [1] = system: TK-10; assay: Growth inhibition of human TK10 cells assessed as cell growth at 10 uM incubated for 48 hrs by sulforhodamine B assay relative to control; assay type: functional; details: TK-10, 48 h, read-out: Activity
# [2] = system: LOX IMVI; assay: Growth inhibition of human LOXIMVI cells incubated for 48 hrs by sulforhodamine B assay; assay type: functional
# [3] = system: IGROV-1; assay: Growth inhibition of human IGROV1 cells incubated for 48 hrs by sulforhodamine B assay; assay type: functional, cell-based; details: IGROV-1, 48 h
# [4] = system: NCI/ADR-RES; assay: Growth inhibition of human NCI/ADR-RES cells incubated for 48 hrs by sulforhodamine B assay; assay type: functional, cell-based
# [5] = system: A498; assay: Growth inhibition of human A498 cells incubated for 48 hrs by sulforhodamine B assay; assay type: functional, cell-based; details: A498, 48 h
# [6] = system: DU-145; assay: Growth inhibition of human DU145 cells incubated for 48 hrs by sulforhodamine B assay; assay type: functional, cell-based; details: DU-145, 48 h
# [7] = system: MOLT-4; assay: Growth inhibition of human MOLT4 cells assessed as cell growth at 0.01 uM incubated for 48 hrs by sulforhodamine B assay relative to control; assay type: functional; details: MOLT-4, 48 h, read-out: Activity
# [8] = system: HOP-62; assay: Growth inhibition of human HOP62 cells assessed as cell growth at 0.01 uM incubated for 48 hrs by sulforhodamine B assay relative to control; assay type: functional; details: HOP-62, 48 h, read-out: Activity
# [9] = system: HCT-116; assay: Growth inhibition of human HCT116 cells assessed as cell growth at 0.01 uM incubated for 48 hrs by sulforhodamine B assay relative to control; assay type: functional; details: HCT-116, 48 h, read-out: Activity
# [10] = system: ACHN; assay: Growth inhibition of human ACHN cells assessed as cell growth at 0.01 uM incubated for 48 hrs by sulforhodamine B assay relative to control; assay type: functional; details: read-out: Activity
# [11] = system: HL-60(TB); assay: Growth inhibition of human HL-60(TB) cells assessed as cell growth at 0.1 uM incubated for 48 hrs by sulforhodamine B assay relative to control; assay type: functional; details: HL-60, 48 h, read-out: Activity
# [12] = system: SNB-19; assay: Growth inhibition of human SNB19 cells assessed as cell growth at 0.1 uM incubated for 48 hrs by sulforhodamine B assay relative to control; assay type: functional; details: SNB-19, 48 h, read-out: Activity
# [13] = system: SNB-75; assay: Growth inhibition of human SNB75 cells assessed as cell growth at 0.1 uM incubated for 48 hrs by sulforhodamine B assay relative to control; assay type: functional; details: SNB-75, 48 h, read-out: Activity
# [14] = system: SK-MEL-2; assay: Growth inhibition of human SK-MEL-2 cells assessed as cell growth at 0.1 uM incubated for 48 hrs by sulforhodamine B assay relative to control; assay type: functional; details: SK-MEL-2, 48 h, read-out: Activity
# [15] = system: SK-OV-3; assay: Growth inhibition of human SKOV3 cells assessed as cell growth at 0.1 uM incubated for 48 hrs by sulforhodamine B assay relative to control; assay type: functional; details: SK-OV-3, 48 h, read-out: Activity
# [16] = system: SN12C; assay: Growth inhibition of human SN12C cells assessed as cell growth at 0.1 uM incubated for 48 hrs by sulforhodamine B assay relative to control; assay type: functional; details: read-out: Activity
# [17] = system: BT-549; assay: Growth inhibition of human BT549 cells assessed as cell growth at 0.1 uM incubated for 48 hrs by sulforhodamine B assay relative to control; assay type: functional; details: BT-549, 48 h, read-out: Activity
# [18] = system: K562; assay: Growth inhibition of human K562 cells assessed as cell growth at 1 uM incubated for 48 hrs by sulforhodamine B assay relative to control; assay type: functional; details: K562, 48 h, read-out: Activity
# [19] = system: KM12; assay: Growth inhibition of human KM12 cells assessed as cell growth at 1 uM incubated for 48 hrs by sulforhodamine B assay relative to control; assay type: functional; details: KM12, 48 h, read-out: Activity
# [20] = system: SK-MEL-28; assay: Growth inhibition of human SK-MEL-28 cells assessed as cell growth at 1 uM incubated for 48 hrs by sulforhodamine B assay relative to control; assay type: functional; details: SK-MEL-28, 48 h, read-out: Activity
# [21] = system: UACC-62; assay: Growth inhibition of human UACC62 cells assessed as cell growth at 1 uM incubated for 48 hrs by sulforhodamine B assay relative to control; assay type: functional; details: UACC-62, 48 h, read-out: Activity
# [22] = system: RPMI-8226; assay: Growth inhibition of human RPMI8226 cells assessed as cell growth at 100 uM incubated for 48 hrs by sulforhodamine B assay relative to control; assay type: functional; details: RPMI-8226, 48 h, read-out: Activity
# [23] = system: HOP-62; assay: Growth inhibition of human HOP62 cells assessed as cell growth at 100 uM incubated for 48 hrs by sulforhodamine B assay relative to control; assay type: functional; details: HOP-62, 48 h, read-out: Activity
# [24] = system: NCI-H226; assay: Growth inhibition of human NCI-H226 cells assessed as cell growth at 100 uM incubated for 48 hrs by sulforhodamine B assay relative to control; assay type: functional; details: NCI-H226, 48 h, read-out: Activity
# [25] = system: HCT-15; assay: Growth inhibition of human HCT15 cells assessed as cell growth at 100 uM incubated for 48 hrs by sulforhodamine B assay relative to control; assay type: functional; details: HCT-15, 48 h, read-out: Activity
# [26] = system: SK-MEL-2; assay: Growth inhibition of human SK-MEL-2 cells assessed as cell growth at 100 uM incubated for 48 hrs by sulforhodamine B assay relative to control; assay type: functional; details: SK-MEL-2, 48 h, read-out: Activity
# [27] = system: UACC-257; assay: Growth inhibition of human UACC257 cells assessed as cell growth at 100 uM incubated for 48 hrs by sulforhodamine B assay relative to control; assay type: functional; details: UACC-257, 48 h, read-out: Activity
# [28] = system: OVCAR-3; assay: Growth inhibition of human OVCAR3 cells assessed as cell growth at 100 uM incubated for 48 hrs by sulforhodamine B assay relative to control; assay type: functional; details: OVCAR-3, 48 h, read-out: Activity
# [29] = system: OVCAR-8; assay: Growth inhibition of human OVCAR8 cells assessed as cell growth at 100 uM incubated for 48 hrs by sulforhodamine B assay relative to control; assay type: functional; details: OVCAR-8, 48 h, read-out: Activity
# [30] = system: PC-3; assay: Growth inhibition of human PC3 cells assessed as cell growth at 100 uM incubated for 48 hrs by sulforhodamine B assay relative to control; assay type: functional; details: PC-3, 48 h, read-out: Activity
# [31] = read-out: LC50 (the source's name)
# [32] = read-out: pLC50 (the source's name) (converted)
smiles,measurement,setting,value
COc1cc(Cl)cc(-c2nn(-c3cccc(NC(=O)Nc4ccc(Cl)c(Cl)c4)c3)cc2-c2ccncc2)c1,growth at 10 µM,[1],19.8%
same,GI50,[2]; read-out: GI50,2.91 µM
same,CC50,[2]; [31],> 100 µM
same,TGI,[2]; read-out: TGI,12.4 µM
same,GI50,[2]; read-out: pGI50 (converted),2.88 µM
same,CC50,[2]; [32],> 100 µM
same,TGI,[2]; read-out: pTGI (converted),30.9 µM
same,GI50,[3]; read-out: GI50,4.36 µM
same,CC50,[3]; [31],> 100 µM
same,TGI,[3]; read-out: TGI,> 100 µM
same,GI50,[3]; read-out: pGI50 (converted),4.37 µM
same,CC50,[3]; [32],> 100 µM
same,TGI,[3]; read-out: pTGI (converted),> 100 µM
same,GI50,[4]; read-out: GI50,2.34 µM
same,CC50,[4]; [31],> 100 µM
same,TGI,[4]; read-out: TGI,24.9 µM
same,GI50,[4]; read-out: pGI50 (converted),2.34 µM
same,CC50,[4]; [32],> 100 µM
same,TGI,[4]; read-out: pTGI (converted),25.1 µM
same,GI50,[5]; read-out: GI50,2.52 µM
same,CC50,[5]; [31],> 100 µM
same,TGI,[5]; read-out: TGI,90.9 µM
same,GI50,[5]; read-out: pGI50 (converted),2.51 µM
same,CC50,[5]; [32],> 100 µM
same,TGI,[5]; read-out: pTGI (converted),91.2 µM
same,GI50,[6]; read-out: GI50,3 µM
same,CC50,[6]; [31],> 100 µM
same,TGI,[6]; read-out: TGI,> 100 µM
same,GI50,[6]; read-out: pGI50 (converted),3.89 µM
same,CC50,[6]; [32],> 100 µM
same,TGI,[6]; read-out: pTGI (converted),> 100 µM
same,growth at 0.01 µM,[7],99%
same,growth at 0.01 µM,[8],92%
same,growth at 0.01 µM,[9],105%
same,growth at 0.01 µM,[10],102%
same,growth at 0.1 µM,[11],93%
same,growth at 0.1 µM,[12],90%
same,growth at 0.1 µM,[13],90%
same,growth at 0.1 µM,[14],54%
same,growth at 0.1 µM,[15],90%
same,growth at 0.1 µM,[16],100%
same,growth at 0.1 µM,[17],98%
same,growth at 1 µM,[18],67%
same,growth at 1 µM,[19],72%
same,growth at 1 µM,[20],87%
same,growth at 1 µM,[21],75%
same,growth at 100 µM,[22],-34%
same,growth at 100 µM,[23],12%
same,growth at 100 µM,[24],2%
same,growth at 100 µM,[25],-9%
same,growth at 100 µM,[26],-70%
same,growth at 100 µM,[27],-36%
same,growth at 100 µM,[28],-4%
same,growth at 100 µM,[29],-9%
same,growth at 100 µM,[30],-24%
